According to ChEMBL document CHEMBL4373731, “Antiprotozoal alkaloid principles of the plant family Amaryllidaceae” (Bioorg Med Chem Lett, 2019):
≈ marks a conversion by molar mass, not a printed value.

Columns and labels:
Trypanosoma cruzi [1] = assay: Antitrypanosomal activity against Trypanosoma cruzi; format: functional, organism-based
Trichomonas vaginalis [2] = assay: Antiprotozoal activity against Trichomonas vaginalis assessed as reduction in […] at 250 ug/ml at relative to control; format: functional
[3] = tested on: Trypanosoma brucei rhodesiense; assay: Antitrypanosomal activity against Trypanosoma brucei rhodesiense; format: functional, organism-based
Entamoeba histolytica = assay: […] activity against Entamoeba histolytica; format: functional, organism-based
Trichomonas vaginalis [4] = assay: Antitrichomonal activity against Trichomonas vaginalis assessed as reduction in parasite viability at 125 ug/ml relative to control; format: functional
Leishmania donovani [5] = assay: […] activity against Leishmania donovani; format: functional, organism-based
KB = assay: Cytotoxicity against human KB cells assessed as reduction in cell viability; format: cell-based
[6] = Selectivity index, ratio of IC50 for Trypanosoma brucei rhodesiense to IC50 for human KB cells; format: toxicity; details: read-out: Ratio IC50
L6 = assay: Cytotoxicity against rat L6 cells assessed as reduction in cell viability; format: cell-based
[7] = tested on: Trypanosoma brucei rhodesiense; assay: Antitrypanosomal activity against Trypanosoma brucei rhodesiense after 48 hrs by [3H]-hypoxanthine incorporation assay; format: functional, organism-based
Trypanosoma cruzi [8] = assay: Antitrypanosomal activity against Trypanosoma cruzi after 48 hrs by [3H]-hypoxanthine incorporation assay; format: functional, organism-based
Leishmania donovani [9] = assay: […] activity against Leishmania donovani after 48 hrs by [3H]-hypoxanthine incorporation assay; format: functional, organism-based

## CC(=O)O[C@H]1[C@H]2c3cc4c(cc3CN3CCC(=C[C@@H]1OC(C)=O)[C@H]23)OCO4
Trypanosoma cruzi [1]
  IC50: 1 to 8.4 µg/mL (≈ 2.69 to 22.6 µM)
Trichomonas vaginalis [2]
  Activity: 19%
[3]
  IC50: 1 to 125 µg/mL (≈ 2.69 to 337 µM)

## CO[C@@H]1C=C[C@@]23c4cc5c(cc4[C@H](O)N(C[C@@H]2O)[C@H]3C1)OCO5
Trypanosoma cruzi [1]
  IC50: 1.38 to 1.4 µg/mL (≈ 4.35 to 4.41 µM)
[3]
  IC50: 1.1 µg/mL (≈ 3.47 µM)

## CO[C@H]1C=C[C@@]23c4cc5c(cc4CN(C[C@@H]2O)[C@H]3C1)OCO5
Entamoeba histolytica
  IC50: 0.53 µg/mL (≈ 1.76 µM)

## CO[C@@H]1C=C[C@@]23c4cc5c(cc4[C@H](O)O[C@H]2CN(C)[C@H]3C1)OCO5
Trichomonas vaginalis [4]
  Activity: 38%

## O[C@H]1[C@H]2c3cc4c(cc3CN3CC[C@H](C[C@@H]1O)[C@H]23)OCO4
Trypanosoma cruzi [1]
  IC50: 21.4 µg/mL (≈ 73.9 µM)
Leishmania donovani [5]
  IC50: > 90 µg/mL
[3]
  IC50: 3.1 µg/mL (≈ 10.7 µM)
KB
  IC50: > 50 µg/mL
[6]
  selectivity ratio: > 16
L6
  IC50: 27 µg/mL (≈ 93.3 µM)

## COC1C=C[C@@]23CCN(Cc4cc5c(cc42)OCO5)[C@@H]3C1 (stereo partly drawn)
Trypanosoma cruzi [1]
  IC50: 55.5 µg/mL (≈ 195 µM)
Leishmania donovani [5]
  IC50: > 100 µg/mL
[3]
  IC50: 16.5 µg/mL (≈ 57.8 µM)

## COc1cc2c(cc1O)CN1CC[C@@]23C=CC(O)C[C@H]13 (stereo partly drawn)
Trypanosoma cruzi [1]
  IC50: > 90 µg/mL
Leishmania donovani [5]
  IC50: > 90 µg/mL
[3]
  IC50: 61.5 µg/mL (≈ 225 µM)

## CO[C@@H]1C=C[C@@]23c4cc5c(cc4CN(C[C@@H]2O)[C@H]3C1)OCO5 [(+)-HAEMANTHAMINE]
Trypanosoma cruzi [1]
  IC50: 1.8 to 30 µg/mL (≈ 5.97 to 99.6 µM)
Leishmania donovani [5]
  IC50: 1.95 to 30 µg/mL (≈ 6.47 to 99.6 µM)
[3]
  IC50: 0.49 to 3.35 µg/mL (≈ 1.63 to 11.1 µM)
Entamoeba histolytica
  IC50: 0.75 µg/mL (≈ 2.49 µM)

## CC(=O)O[C@@H]1CC=C2CCN3Cc4cc5c(cc4[C@H]1[C@@H]23)OCO5 [ACETYLCARANINE]
Trypanosoma cruzi [1]
  IC50: 35.9 µg/mL (≈ 115 µM)
Leishmania donovani [5]
  IC50: > 100 µg/mL
[3]
  IC50: 1.97 µg/mL (≈ 6.29 µM)

## O=C(Cn1ccnc1[N+](=O)[O-])NCc1ccccc1 [BENZNIDAZOLE]
Trypanosoma cruzi [1]
  IC50: 0.36 µg/mL (≈ 1.38 µM)
Leishmania donovani [5]
  IC50: 0.2 µg/mL (≈ 0.768 µM)
[7]
  IC50: 0.001 µg/mL (≈ 0.00384 µM)
Trypanosoma cruzi [8]
  IC50: 5.42 µg/mL (≈ 20.8 µM)
[3]
  IC50: 0.04 µg/mL (≈ 0.154 µM)
Leishmania donovani [9]
  IC50: 33.3 µg/mL (≈ 128 µM)

## COc1c2c(cc3c1OCO3)[C@@]13CCN(C2)[C@@H]1CC=C[C@H]3O [BUPHANAMINE]
Trypanosoma cruzi [1]
  IC50: 62.9 µg/mL (≈ 209 µM)
Leishmania donovani [5]
  IC50: > 100 µg/mL
[3]
  IC50: 28.2 µg/mL (≈ 93.6 µM)

## COc1c2c(cc3c1C(=O)O[C@H]1[C@@H]3[C@H]3C(=C[C@@H]1O)CCN3C)OCO2 [CANDIMINE]
Trichomonas vaginalis [2]
  Activity: 60%

## O[C@H]1C=C[C@@]23CCN(Cc4cc5c(cc42)OCO5)[C@@H]3C1 [CRININE]
[3]
  IC50: 18.9 µg/mL (≈ 69.8 µM)

## COc1ccc2c3c1O[C@H]1C[C@@H](O)C=C[C@@]31CCN(C)C2 [GALANTAMINE]
Trypanosoma cruzi [1]
  IC50: > 30 µg/mL
Leishmania donovani [5]
  IC50: > 30 µg/mL
[3]
  IC50: > 30 µg/mL

## COc1cc2c(cc1OC)[C@@H]1[C@H](O)[C@@H](OC)C=C3CCN(C2)[C@H]31 [GALANTHINE]
[3]
  IC50: 3.1 µg/mL (≈ 9.77 µM)

## O[C@H]1[C@H]2c3cc4c(cc3CN3CCC(=C[C@@H]1O)[C@H]23)OCO4 [LYCORINE]
Trichomonas vaginalis [4]
  Activity: 20%
Trichomonas vaginalis [2]
  Activity: 40%
[3]
  IC50: 3.1 µg/mL (≈ 10.8 µM)
Entamoeba histolytica
  IC50: 0.23 µg/mL (≈ 0.801 µM)

## Nc1nc(N)nc(Nc2ccc([As]3SCC(CO)S3)cc2)n1 (stereo not drawn) [MELARSOPROL]
Trypanosoma cruzi [1]
  IC50: 0.36 µg/mL
Leishmania donovani [5]
  IC50: 0.2 µg/mL
Trypanosoma cruzi [8]
  IC50: 5.42 µg/mL
[3]
  IC50: 0.04 µg/mL
Leishmania donovani [9]
  IC50: 33.3 µg/mL

## CCCCCCCCCCCCCCCCOP(=O)([O-])OCC[N+](C)(C)C [MILTEFOSINE]
Trypanosoma cruzi [1]
  IC50: 0.36 µg/mL (≈ 0.883 µM)
Leishmania donovani [5]
  IC50: 0.2 µg/mL (≈ 0.491 µM)
[3]
  IC50: 0.04 µg/mL (≈ 0.0981 µM)

## CO[C@H]1C=C2[C@H]3CN(Cc4cc5c(cc43)OCO5)[C@H]2C[C@@H]1O [MONTANINE]
Trichomonas vaginalis [4]
  Activity: 35%

## O=C(O)c1cccnc1 [NIACIN]
Trypanosoma cruzi [1]
  IC50: > 90 µg/mL
Leishmania donovani [5]
  IC50: 57.4 µg/mL (≈ 466 µM)
[3]
  IC50: 41.2 µg/mL (≈ 335 µM)

## COc1cc2c(cc1O)CN1CCC3=CC[C@@H](O)[C@@H]2[C@@H]31 [NORPLUVINE]
[3]
  IC50: 90 µg/mL (≈ 329 µM)

## Cc1ncc([N+](=O)[O-])n1CC(O)CCl (stereo not drawn) [ORNIDAZOLE]
Entamoeba histolytica
  IC50: 0.28 µg/mL (≈ 1.27 µM)

## COc1cc([C@@H]2c3cc4c(cc3[C@H](O)[C@H]3COC(=O)[C@H]23)OCO4)cc(OC)c1OC [PODOFILOX]
KB
  IC50: 0.002 µg/mL (≈ 0.00483 µM)
L6
  IC50: 0.005 µg/mL (≈ 0.0121 µM)

## COc1cc2c(cc1O)[C@@H]1[C@H](O)[C@@H](O)C=C3CCN(C2)[C@H]31 [PSEUDOLYCORINE]
Trypanosoma cruzi [1]
  IC50: > 30 µg/mL
Leishmania donovani [5]
  IC50: > 30 µg/mL

## CN1CC[C@@]23C=C[C@H](O)C[C@@H]2Oc2c(O)ccc(c23)C1 [SANGUININE]
Trypanosoma cruzi [1]
  IC50: > 30 µg/mL
Leishmania donovani [5]
  IC50: > 30 µg/mL
[3]
  IC50: 22.5 µg/mL (≈ 82.3 µM)

## c1cc2c(c3c1C[C@H]1c4cc5c(cc4CCN1C3)OCO5)OCO2 [STYLOPINE]
Trypanosoma cruzi [1]
  IC50: 17.5 µg/mL (≈ 54.2 µM)
Leishmania donovani [5]
  IC50: 31.2 µg/mL (≈ 96.4 µM)
[3]
  IC50: 10.9 µg/mL (≈ 33.7 µM)

## CO[C@@H]1C=C[C@@]23c4cc5c(cc4CO[C@]2(O)CN(C)[C@H]3C1)OCO5 [TAZETTINE]
Trichomonas vaginalis [4]
  Activity: 15%

## [O-]c1cc2c3c(c1)c1cc4c(cc1c[n+]3CC2)OCO4 [UNGEREMINE]
Trypanosoma cruzi [1]
  IC50: 0.85 µg/mL (≈ 3.2 µM)
Leishmania donovani [5]
  IC50: > 30 µg/mL
[3]
  IC50: 0.97 µg/mL (≈ 3.66 µM)
